Laboratory results as given in PubChem BioAssay AID248 (DTP/NCI, 2004).
Several values for one entry are separate records, joined by “and”; a condition that tells them apart may be missing. Equal entries are not always repeated. Toxic doses and inconclusive results are not listed. Rule as the data show it: active = T/C of 150% or more; inactive = T/C below 125%.

Tested on: L1210 leukemia ip in BDF1 mice, survival T/C
Test: NCI In Vivo Anticancer Drug Screen. Data for tumor model L1210 Leukemia (intraperitoneal) in B6D2F1 (BDF1) mice
Conditions: endpoint: mean survival time, higher = longer survival
In short: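 Tumor was transplanted into mice, which were then dosed with test compound or vehicle alone. Survival was recorded for each group, and the treated figure was expressed relative to the control figure.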

[1] = dose: 12.5 mg/kg/injection, schedule: Q01DX009 (ip), vehicle: Klucel (hydroxypropylcellulose) (HPC)
[2] = dose: 25.0 mg/kg/injection, schedule: Q01DX009 (ip), vehicle: Klucel (hydroxypropylcellulose) (HPC)
[3] = dose: 100.0 mg/kg/injection, schedule: Q04DX003 (ip), vehicle: Klucel (hydroxypropylcellulose) (HPC)
[4] = dose: 200.0 mg/kg/injection, schedule: Q04DX003 (ip), vehicle: Klucel (hydroxypropylcellulose) (HPC)
[5] = dose: 400.0 mg/kg/injection, schedule: Q04DX003 (ip), vehicle: Klucel (hydroxypropylcellulose) (HPC)
[6] = dose: 100.0 mg/kg/injection, schedule: Q01DX001 (ip), vehicle: other
[7] = dose: 200.0 mg/kg/injection, schedule: Q01DX001 (ip), vehicle: other
[8] = dose: 400.0 mg/kg/injection, schedule: Q01DX001 (ip), vehicle: other
[9] = dose: 100.0 mg/kg/injection, schedule: Q01DX009 (ip), vehicle: Klucel (hydroxypropylcellulose) (HPC)
[10] = dose: 200.0 mg/kg/injection, schedule: Q01DX009 (ip), vehicle: Klucel (hydroxypropylcellulose) (HPC)
[11] = dose: 100.0 mg/kg/injection, schedule: Q04DX003 (ip), vehicle: saline
[12] = dose: 200.0 mg/kg/injection, schedule: Q04DX003 (ip), vehicle: saline
[13] = dose: 400.0 mg/kg/injection, schedule: Q04DX003 (ip), vehicle: saline

Measured: T/C

O=C1c2ccccc2C(=O)N1Cc1cccc([N+](=O)[O-])c1
inactive: [1] 87 % of control | [2] 87 % of control | dose: 50.0 mg/kg/injection, schedule: Q01DX009 (ip), vehicle: Klucel (hydroxypropylcellulose) (HPC) 94 % of control | [3] 93 % of control | [4] 97 % of control | [5] 90 % of control

COc1cccc(C[Si](C)C)c1
inactive: dose: 100.0 mg/kg/injection, schedule: Q04DX003 (ip), vehicle: saline with Tween-80 104 % of control | dose: 200.0 mg/kg/injection, schedule: Q04DX003 (ip), vehicle: saline with Tween-80 107 % of control

Cc1cc(C)c2[nH]c(=O)c(C)c(C)c2c1Br
inactive: [6] 102 % of control | [7] 94 % of control | [8] 100 % of control

CCCC(C)OP(=O)(OC(C)CC)OC(C)CC (stereo not drawn)
inactive: [9] 97 % of control | [10] 97 % of control

Nc1nc(Cl)[nH]c(=O)n1
inactive: dose: 12.5 mg/kg/injection, schedule: Q01DX001 (ip), vehicle: Klucel (hydroxypropylcellulose) (HPC) 105 % of control | dose: 25.0 mg/kg/injection, schedule: Q01DX001 (ip), vehicle: Klucel (hydroxypropylcellulose) (HPC) 97 % of control | dose: 50.0 mg/kg/injection, schedule: Q01DX001 (ip), vehicle: Klucel (hydroxypropylcellulose) (HPC) 100 % of control

ClC1=C(Cl)C2(Cl)CCC1(Cl)C2(Cl)Cl
inactive: [11] 101 % of control | [12] 97 % of control | [13] 108 % of control

C=C1C(=O)OC2C3OC(C)(CCC(O)C3COC(C)=O)CC(OC(=O)/C(=C/C)COC(C)=O)C12 (stereo not drawn)
inactive: dose: 6.25 mg/kg/injection, schedule: Q01DX009 (ip), vehicle: Klucel (hydroxypropylcellulose) (HPC) 100 % of control | [1] 97 % of control | [2] 103 % of control

CC(=O)N/C(N)=N/N=C(C)/C=N\N
inactive: dose: 15.0 mg/kg/injection, schedule: Q01DX Z (ip), vehicle: carboxymethylcellulose (CMC) 96 % of control | dose: 30.0 mg/kg/injection, schedule: Q01DX Z (ip), vehicle: carboxymethylcellulose (CMC) 96 % of control | dose: 60.0 mg/kg/injection, schedule: Q01DX Z (ip), vehicle: carboxymethylcellulose (CMC) 101 % of control | dose: 120.0 mg/kg/injection, schedule: Q01DX Z (ip), vehicle: carboxymethylcellulose (CMC) 101 % of control | dose: 120.0 mg/kg/injection, schedule: Q01DX Z (oral), vehicle: carboxymethylcellulose (CMC) 111 % of control

COc1cc(Cl)ccc1NC(=O)C(O)C(O)C(O)C(O)CO (stereo not drawn)
inactive: [6] 97 % of control | dose: 100.0 mg/kg/injection, schedule: Q01DX009 (ip), vehicle: other 100 % of control and 103 % of control | dose: 100.0 mg/kg/injection, schedule: Q04DX002 (ip), vehicle: other 98 % of control and 103 % of control | dose: 100.0 mg/kg/injection, schedule: Q04DX003 (ip), vehicle: carboxymethylcellulose (CMC) 103 % of control | [7] 90 % of control | dose: 200.0 mg/kg/injection, schedule: Q01DX009 (ip), vehicle: other 94 % of control and 97 % of control | dose: 200.0 mg/kg/injection, schedule: Q04DX002 (ip), vehicle: other 98 % of control and 92 % of control | dose: 200.0 mg/kg/injection, schedule: Q04DX003 (ip), vehicle: carboxymethylcellulose (CMC) 100 % of control | [8] 101 % of control | dose: 400.0 mg/kg/injection, schedule: Q01DX009 (ip), vehicle: other 95 % of control and 97 % of control | dose: 400.0 mg/kg/injection, schedule: Q04DX002 (ip), vehicle: other 103 % of control and 113 % of control | dose: 400.0 mg/kg/injection, schedule: Q04DX003 (ip), vehicle: carboxymethylcellulose (CMC) 103 % of control

CCOc1ccn(CC(=O)Nc2nccs2)c(=O)n1
inactive: dose: 100.0 mg/kg/injection, schedule: Q01DX009 (ip), vehicle: saline 100 % of control | [11] 98 % of control | dose: 200.0 mg/kg/injection, schedule: Q01DX009 (ip), vehicle: saline 103 % of control | [12] 96 % of control | dose: 400.0 mg/kg/injection, schedule: Q01DX009 (ip), vehicle: saline 105 % of control | [13] 100 % of control

OCCc1ccc[nH]1
inactive: dose: 75.0 mg/kg/injection, schedule: Q01DX001 (ip), vehicle: saline 105 % of control | dose: 150.0 mg/kg/injection, schedule: Q01DX001 (ip), vehicle: saline 105 % of control | dose: 300.0 mg/kg/injection, schedule: Q01DX001 (ip), vehicle: saline 105 % of control

O=c1[nH]cnc2[nH]cc([N+](=O)[O-])c12
inactive: dose: 50.0 mg/kg/injection, schedule: Q01DX001 (ip), vehicle: carboxymethylcellulose (CMC) 101 % of control | dose: 100.0 mg/kg/injection, schedule: Q01DX001 (ip), vehicle: carboxymethylcellulose (CMC) 89 % of control | dose: 200.0 mg/kg/injection, schedule: Q01DX001 (ip), vehicle: carboxymethylcellulose (CMC) 98 % of control and 87 % of control | dose: 400.0 mg/kg/injection, schedule: Q01DX001 (ip), vehicle: carboxymethylcellulose (CMC) 93 % of control and 97 % of control

Cc1ccc(OCCOc2ccc([N+](=O)[O-])cc2)cc1
inactive: [3] 96 % of control | [4] 93 % of control | [5] 91 % of control

Cc1cc(C)cc(OCC2C(COC(=O)c3cccc(Cl)c3)c3ccccc3N2C)c1 (stereo not drawn)
inactive: [9] 89 % of control | [10] 94 % of control

CCOCCO
inactive: dose: 5.0 mg/kg/injection, schedule: Q01DX009 (ip), vehicle: saline 97 % of control | dose: 10.0 mg/kg/injection, schedule: Q01DX009 (ip), vehicle: saline 90 % of control | dose: 20.0 mg/kg/injection, schedule: Q01DX009 (ip), vehicle: saline 98 % of control

NC(=O)C(c1ccccc1)C(O)c1ccccc1 (stereo not drawn)
inactive: dose: 50.0 mg/kg/injection, schedule: Q01DX001 (ip), vehicle: saline 101 % of control | dose: 100.0 mg/kg/injection, schedule: Q01DX001 (ip), vehicle: saline 95 % of control | dose: 200.0 mg/kg/injection, schedule: Q01DX001 (ip), vehicle: saline 97 % of control | dose: 400.0 mg/kg/injection, schedule: Q01DX001 (ip), vehicle: saline 101 % of control

CCc1c(Cl)nc(N)nc1Nc1ccc(C)c(C)c1
inactive: dose: 100.0 mg/kg/injection, schedule: Q01DX Z (ip), vehicle: methylcellulose (MC) 91 % of control | dose: 200.0 mg/kg/injection, schedule: Q01DX Z (ip), vehicle: methylcellulose (MC) 93 % of control

O=P(c1ccc(F)cc1)(c1ccc(F)cc1)c1ccc(F)cc1
inactive: [1] 101 % of control | [2] 103 % of control
